Test results as given in patent US12121522B2, “Methods of treating cancer with an mTOR inhibitor” (Revolution Medicines, Inc., priority 2022, dated 2024).
Where “and” joins values, the source holds several entries; their conditions need not be identical. Equal values may be shown once.

Legend:
[1] = Clinical safety (TEAEs, TRAEs, SAEs, DLTs), study RMC-5552-001
Text: RMC-5552 is currently being evaluated as a monotherapy in a FIH, dose-escalation, Phase 1/1b study (RMC-5552-001) in adult subjects with advanced relapsed/refractory solid tumors (see Example 3 for additional study protocol details.) The purpose of this study is to evaluate safety, tolerability, preliminary efficacy, PK, and pharmacodynamics of RMC-5552 monotherapy. The primary objective is to characterize the safety and tolerability of RMC-5552 monotherapy and to define the MTD and the Recommended Phase 2 Dose (RP2DS) and schedule for RMC-5552 monotherapy in subjects with relapsed/refractory solid tumors.
Adverse events (AEs) were based on the Medical Dictionary for Regulatory Activities (MedDRA) preferred terms and included the grouped preferred term of stomatitis/mucositis using mucosal inflammation, oral pain, and stomatitis. […] Of note, the grouped term of stomatitis/mucositis comprised events of (based on MedDRA PT) mucosal inflammation, oral pain, and stomatitis.
In the Dose-Escalation Phase, assessment of safety and tolerability will be the primary endpoints and will be directly measured by the incidence of dose-limiting toxicities (DLTs), treatment-emergent adverse events (TEAEs), and serious adverse events (SAEs). The starting dose of RMC-5552 will be 1.6 mg once weekly (QW) via intravenous (IV) infusion. The first cycle of treatment (i.e., first 21 days after treatment initiation) constitutes the DLT evaluation period.
A DLT is defined as a toxicity that is considered at least possibly related to study intervention, occurs within the first 21 days of treatment initiation (i.e., during Cycle 1), and meets at least 1 of the following criteria (with severity graded according to Common Terminology Criteria for Adverse Events [CTCAE] v5): […]

[2] = system: HN009 HNSCC PDX; experiment: HN009 HNSCC patient-derived xenograft; format: in vivo, mouse
Text: FIGS. 3A-3B show Antitumor Activity of RMC-5552 in the HN009 Patient-Derived Xenograft Model of Human HNSCC Following Once-Weekly Administration. Abbreviations: ANOVA=analysis of variance; IP=intraperitoneal; QW=once weekly. […] Each animal represented as a separate bar. The number of tumor regressions out of total mice in that group is shown (tumor regression defined as >10% reduction in tumor volume from starting volume) in each group.
(§1) The antitumor activity of RMC-5552 as a single agent against tumors predicted to be dependent on the mTOR pathway and/or bearing specific PI3K/mTOR pathway-activating mutations (i.e., PIK3CA^mut, phosphatase and tensin homolog [PTEN^LOF], or co-mutation of both and tuberous sclerosis complex [TSC^LOF]) was evaluated in selected CDX and/or PDX models
(§2) Table 1. RMC-5552 was administered IP once weekly at 1, 3, 10, and 30 mg/kg. In the breast cancer MCF7 PIK3CA^[…] model, a higher dose of 50 mg/kg once weekly and an alternate dose regimen of 30 mg/kg every 10 days were also evaluated.

[3] = system: murine models of mTORC1-activated cancers; details: mouse, in vivo
Protocol: as §1

[4] = system: BLC1521 TSC1 protein-negative bladder cancer; experiment: BLC1521 bladder cancer xenograft; format: in vivo, mouse
Protocol: as §1, §2

[5] = system: HCC-1954 PIK3CA^H1047R breast cancer CDX; experiment: HCC-1954 breast cancer xenograft; format: in vivo, mouse; details: two values
Protocol: as §1, §2

[6] = 10 mg QW (2-hour infusion) 21-Day cycle (N = 5)

CO[C@H]1C[C@@H]2CC[C@@H](C)[C@@](O)(O2)C(=O)C(=O)N2CCCC[C@H]2C(=O)O[C@H]([C@H](C)C[C@@H]2CC[C@@H](OC(=O)NCCOCCOCCOCCOCCOCCOCCOCCOCCC(=O)N3CCc4cc(Cn5nc(-c6ccc7oc(N)nc7c6)c6c(N)ncnc65)ccc4C3)[C@H](OC)C2)C[C@@H](O)[C@H](C)/C=C(\C)[C@@H](O)[C@@H](OC)C(=O)[C@H](C)C[C@H](C)/C=C/C=C/C=C/1C [RMC-5552]
Treatment-emergent SAE Wound infection, number (%) of subjects ([1]; 1.6 mg QW 21-Day cycle (N = 2)): 0 subjects | Treatment-emergent SAE Wound infection, number (%) of subjects ([1]; 3 mg QW 21-Day cycle (N = 3)): 0 subjects | Treatment-emergent SAE Wound infection, number (%) of subjects ([1]; 6 mg QW 21-Day cycle (N = 12)): 0 subjects | Treatment-emergent SAE Wound infection, number (%) of subjects ([1]; 8 mg QW 21-Day cycle (N = 15)): 1 subjects | Treatment-emergent SAE Urinary tract infection, number (%) of subjects [1, 6]: 0 subjects | Treatment-emergent SAE Wound infection, number (%) of subjects [1, 6]: 0 subjects | Treatment-emergent SAE Wound infection, number (%) of subjects ([1]; 12 mg QW 21-Day cycle (N = 2)): 0 subjects | Treatment-emergent SAE Urinary tract infection, number (%) of subjects ([1]; Overall (N = 39)): 1 subjects | Treatment-emergent SAE Wound infection, number (%) of subjects ([1]; Overall (N = 39)): 1 subjects | DLT rate ([1]; human, in vivo): (3.0%) | Grade ≥3 TEAE: anemia ([1]; human, in vivo): 15.4% | Grade ≥3 TEAE: dysphagia ([1]; human, in vivo): 5.1% | Grade ≥3 TEAE: fatigue ([1]; human, in vivo): 5.1% | Grade ≥3 TEAE: rash (grouped term) ([1]; human, in vivo): 5.1% | Grade ≥3 TEAE: stomatitis/mucositis ([1]; human, in vivo): 10.3% | Grade ≥3 TEAE: urinary tract infection ([1]; human, in vivo): 5.1% | Number of subjects with any SAE (treatment-emergent) ([1]; human, in vivo): 14 subjects | SAEs assessed as treatment-related by investigators ([1]; human, in vivo): No SAEs were assessed as treatment-related | TEAE any grade: abdominal pain ([1]; human, in vivo): 20.5% | TEAE any grade: anemia ([1]; human, in vivo): 25.6% | TEAE any grade: decreased appetite ([1]; human, in vivo): 43.6% | TEAE any grade: diarrhea ([1]; human, in vivo): 23.10% | TEAE any grade: dyspnea ([1]; human, in vivo): 28.20% | TEAE any grade: fatigue ([1]; human, in vivo): 61.5% | TEAE any grade: headache ([1]; human, in vivo): 20.5% | TEAE any grade: nausea ([1]; human, in vivo): 41.0% | TEAE any grade: rash (grouped term) ([1]; human, in vivo): 28.20% | TEAE any grade: vomiting ([1]; human, in vivo): 30.80% | TRAE: decreased appetite ([1]; human, in vivo): 25% | TRAE: diarrhea ([1]; human, in vivo): 25% | TRAE: fatigue ([1]; human, in vivo): 25% | TRAE: mucositis/stomatitis ([1]; human, in vivo): 35% | TRAE: nausea ([1]; human, in vivo): 25% | Treatment-emergent SAE Acute kidney injury, number (%) of subjects ([1]; human, in vivo): 1 subjects | Treatment-emergent SAE Anaemia, number (%) of subjects ([1]; human, in vivo): 1 subjects | Treatment-emergent SAE Anemia along with occlusion, number (%) of subjects ([1]; human, in vivo): 1 subjects | Treatment-emergent SAE Atrial fibrillation, number (%) of subjects ([1]; human, in vivo): 1 subjects | Treatment-emergent SAE Dehydration, number (%) of subjects ([1]; human, in vivo): 1 subjects | Treatment-emergent SAE Dyspnea, number (%) of subjects ([1]; human, in vivo): 1 subjects | Treatment-emergent SAE Embolism, number (%) of subjects ([1]; human, in vivo): 1 subjects | Treatment-emergent SAE Face Oedema, number (%) of subjects ([1]; human, in vivo): 1 subjects | Treatment-emergent SAE Failure to Thrive, number (%) of subjects ([1]; human, in vivo): 1 subjects | Treatment-emergent SAE Fatigue, number (%) of subjects ([1]; human, in vivo): 1 subjects | Treatment-emergent SAE Hypotension, number (%) of subjects ([1]; human, in vivo): 1 subjects | Treatment-emergent SAE Large intestinal obstruction, number (%) of subjects ([1]; human, in vivo): 1 subjects | Treatment-emergent SAE Lower gastrointestinal hemorrhage, number (%) of subjects ([1]; human, in vivo): 1 subjects | Treatment-emergent SAE Oedema peripheral, number (%) of subjects ([1]; human, in vivo): 1 subjects | Treatment-emergent SAE Pain in extremity, number (%) of subjects ([1]; human, in vivo): 1 subjects | Treatment-emergent SAE Pleural effusion, number (%) of subjects ([1]; human, in vivo): 1 subjects | Treatment-emergent SAE Pneumonia aspiration, number (%) of subjects ([1]; human, in vivo): 1 subjects | Treatment-emergent SAE Pneumonia, number (%) of subjects ([1]; human, in vivo): 1 subjects | Treatment-emergent SAE Pneumothorax, number (%) of subjects ([1]; human, in vivo): 1 subjects | Treatment-emergent SAE Rash maculopapular, number (%) of subjects ([1]; human, in vivo): 1 subjects | Treatment-emergent SAE Rectourethral fistula, number (%) of subjects ([1]; human, in vivo): 1 subjects | Treatment-emergent SAE Small intestinal obstruction, number (%) of subjects ([1]; human, in vivo): 1 subjects | Treatment-emergent SAE Small intestinal perforation, number (%) of subjects ([1]; human, in vivo): 1 subjects | Treatment-emergent SAE Stomatitis/mucositis, number (%) of subjects ([1]; human, in vivo): 1 subjects | Treatment-emergent SAE Vascular occlusion, number (%) of subjects ([1]; human, in vivo): 1 subjects | dose-limiting toxicities ([1]; human, in vivo): no dose-limiting toxicities | drug-related adverse event: decreased appetite ([1]; human, in vivo): 32% | drug-related adverse event: fatigue ([1]; human, in vivo): 41% | drug-related adverse event: nausea ([1]; human, in vivo): 36% | drug-related adverse event: stomatitis/mucositis ([1]; human, in vivo): 41% | drug-related adverse event: vomiting ([1]; human, in vivo): 23% | event of interest: edema peripheral ([1]; human, in vivo): 10.3% | event of interest: hyperglycemia ([1]; human, in vivo): 7.7% | event of interest: rash maculo-papular ([1]; human, in vivo): 17.9% | median duration of resolved stomatitis/mucositis events ([1]; human, in vivo): 12.0 days | median time to first onset of stomatitis/mucositis ([1]; human, in vivo): 12.5 days | n/N (DLT rate) ([1]; human, in vivo): 1/33 | related Grade 4 or 5 adverse events ([1]; human, in vivo): No related Grade 4 or 5 adverse events | treatment-emergent hyperglycemia, patients ([1]; human, in vivo): 6.8% | TGI ([2]; 3 mg/kg IP QW): 91% | tumor regression ([2]; 10 mg/kg IP QW): 17% regression | tolerability of doses and regimens [3]: generally well-tolerated | TGI ([4]; 3 mg/kg IP QW): 94% | tumor regression ([4]; 10 mg/kg IP QW): 45% regression | TGI ([5]; 1 mg/kg IP QW): 79% and 81% | TGI ([5]; 3 mg/kg IP QW): 94% and 96% | TGI ([5]; 10 mg/kg IP QW): 95% and 92%
